# Results taken from ChEMBL document CHEMBL3351537, “Design, synthesis and biological evaluation of 4-fluoropyrrolidine-2-carbonitrile and octahydrocyclopenta[b]pyrrole-2-carbonitrile derivatives as dipeptidyl peptidase IV inhibitors” (Eur J Med Chem, 2014).
# Key:
# Dipeptidyl peptidase 2 = Dipeptidyl peptidase 2 (Homo sapiens, UniProt Q9UHL4); assay: Inhibition of DPP7 (unknown origin) expressed in baculovirus expression system using Nle-Pro-AMC as substrate by continuous fluorometric assay
# Dipeptidyl peptidase 9 = Dipeptidyl peptidase 9 (Homo sapiens, UniProt Q86TI2); assay: Inhibition of DPP9 (unknown origin) expressed in baculovirus expression system using Ala-Pro-AMC as substrate by continuous fluorometric assay
# Prolyl endopeptidase FAP = biological target: T1, Prolyl endopeptidase FAP (Homo sapiens, UniProt Q12884); assay: Inhibition of FAP (unknown origin) expressed in baculovirus expression system using Nle-Pro-AMC as substrate by continuous fluorometric assay
# T1 sequence (Q12884 whole entry): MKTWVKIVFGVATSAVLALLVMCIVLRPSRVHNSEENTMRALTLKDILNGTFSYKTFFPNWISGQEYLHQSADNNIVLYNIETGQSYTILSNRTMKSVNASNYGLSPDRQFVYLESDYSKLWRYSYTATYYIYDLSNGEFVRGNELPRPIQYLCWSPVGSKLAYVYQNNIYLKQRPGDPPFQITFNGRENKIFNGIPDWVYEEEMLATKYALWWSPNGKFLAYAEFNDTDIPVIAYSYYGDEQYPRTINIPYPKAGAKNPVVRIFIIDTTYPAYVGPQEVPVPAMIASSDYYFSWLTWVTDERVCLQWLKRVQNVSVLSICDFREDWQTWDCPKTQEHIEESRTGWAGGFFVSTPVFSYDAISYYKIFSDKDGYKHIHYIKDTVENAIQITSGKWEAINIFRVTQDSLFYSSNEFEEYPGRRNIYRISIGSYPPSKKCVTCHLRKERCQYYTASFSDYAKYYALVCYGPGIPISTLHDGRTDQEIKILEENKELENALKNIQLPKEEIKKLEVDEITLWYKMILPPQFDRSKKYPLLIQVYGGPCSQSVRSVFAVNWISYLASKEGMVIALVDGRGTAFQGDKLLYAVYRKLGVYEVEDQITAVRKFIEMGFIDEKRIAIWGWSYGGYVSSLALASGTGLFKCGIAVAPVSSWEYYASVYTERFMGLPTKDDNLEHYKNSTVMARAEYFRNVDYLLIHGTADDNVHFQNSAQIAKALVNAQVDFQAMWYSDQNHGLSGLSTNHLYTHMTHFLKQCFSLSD
# Dipeptidyl peptidase 4 = Dipeptidyl peptidase 4 (Homo sapiens, UniProt P27487); assay: Inhibition of human recombinant DPP4 expressed in baculovirus expression system using Ala-Pro-AMC as substrate by continuous fluorometric assay
# Dipeptidyl peptidase 8 = Dipeptidyl peptidase 8 (Homo sapiens, UniProt Q6V1X1); assay: Inhibition of DPP8 (unknown origin) expressed in baculovirus expression system using Ala-Pro-AMC as substrate by continuous fluorometric assay
# Dipeptidyl peptidase 8, sequence (Q6V1X1 whole entry): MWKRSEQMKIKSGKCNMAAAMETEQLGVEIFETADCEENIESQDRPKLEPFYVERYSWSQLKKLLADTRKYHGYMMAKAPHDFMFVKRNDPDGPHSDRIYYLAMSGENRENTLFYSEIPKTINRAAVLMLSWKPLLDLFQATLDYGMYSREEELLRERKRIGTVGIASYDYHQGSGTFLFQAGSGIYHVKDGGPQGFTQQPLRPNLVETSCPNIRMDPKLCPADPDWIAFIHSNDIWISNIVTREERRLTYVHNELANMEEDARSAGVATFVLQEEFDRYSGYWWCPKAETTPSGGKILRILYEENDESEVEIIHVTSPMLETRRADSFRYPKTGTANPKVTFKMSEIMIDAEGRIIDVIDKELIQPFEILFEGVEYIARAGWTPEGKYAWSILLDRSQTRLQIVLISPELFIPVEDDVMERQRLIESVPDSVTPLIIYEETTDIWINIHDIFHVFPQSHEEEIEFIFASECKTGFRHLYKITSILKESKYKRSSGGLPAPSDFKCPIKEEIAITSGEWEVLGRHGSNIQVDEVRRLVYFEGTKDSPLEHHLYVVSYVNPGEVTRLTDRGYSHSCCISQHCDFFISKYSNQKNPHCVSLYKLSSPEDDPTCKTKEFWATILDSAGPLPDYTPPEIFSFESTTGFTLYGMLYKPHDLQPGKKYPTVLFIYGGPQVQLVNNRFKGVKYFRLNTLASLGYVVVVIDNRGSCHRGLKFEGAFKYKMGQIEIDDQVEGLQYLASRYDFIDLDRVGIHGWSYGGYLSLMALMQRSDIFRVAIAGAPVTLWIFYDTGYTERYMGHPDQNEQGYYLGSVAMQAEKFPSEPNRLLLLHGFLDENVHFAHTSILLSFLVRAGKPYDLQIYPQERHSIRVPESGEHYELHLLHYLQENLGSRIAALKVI
# Dipeptidyl peptidase 9, sequence (Q86TI2 whole entry): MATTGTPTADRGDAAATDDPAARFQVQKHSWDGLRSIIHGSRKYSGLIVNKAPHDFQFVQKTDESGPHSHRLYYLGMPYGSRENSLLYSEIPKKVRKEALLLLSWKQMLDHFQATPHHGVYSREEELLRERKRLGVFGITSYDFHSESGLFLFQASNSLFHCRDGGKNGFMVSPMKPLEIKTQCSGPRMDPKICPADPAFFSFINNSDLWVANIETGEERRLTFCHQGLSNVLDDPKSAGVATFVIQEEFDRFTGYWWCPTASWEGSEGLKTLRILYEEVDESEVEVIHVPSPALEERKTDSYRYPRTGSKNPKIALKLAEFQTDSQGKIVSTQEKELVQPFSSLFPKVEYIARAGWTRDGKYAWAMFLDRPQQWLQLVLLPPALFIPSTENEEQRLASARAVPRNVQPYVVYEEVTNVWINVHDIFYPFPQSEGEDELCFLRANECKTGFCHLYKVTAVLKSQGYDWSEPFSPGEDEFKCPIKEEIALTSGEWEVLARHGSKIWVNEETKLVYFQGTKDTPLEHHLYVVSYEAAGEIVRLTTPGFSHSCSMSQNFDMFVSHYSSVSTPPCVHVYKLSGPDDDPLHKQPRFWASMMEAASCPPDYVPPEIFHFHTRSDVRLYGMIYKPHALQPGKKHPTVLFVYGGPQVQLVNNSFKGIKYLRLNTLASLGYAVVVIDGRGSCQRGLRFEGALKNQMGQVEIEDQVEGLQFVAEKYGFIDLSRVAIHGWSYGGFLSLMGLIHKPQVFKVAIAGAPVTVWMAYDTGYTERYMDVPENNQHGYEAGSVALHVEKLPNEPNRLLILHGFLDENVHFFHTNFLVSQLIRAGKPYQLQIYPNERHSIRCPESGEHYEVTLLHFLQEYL
# Dipeptidyl peptidase 4, sequence (P27487 whole entry): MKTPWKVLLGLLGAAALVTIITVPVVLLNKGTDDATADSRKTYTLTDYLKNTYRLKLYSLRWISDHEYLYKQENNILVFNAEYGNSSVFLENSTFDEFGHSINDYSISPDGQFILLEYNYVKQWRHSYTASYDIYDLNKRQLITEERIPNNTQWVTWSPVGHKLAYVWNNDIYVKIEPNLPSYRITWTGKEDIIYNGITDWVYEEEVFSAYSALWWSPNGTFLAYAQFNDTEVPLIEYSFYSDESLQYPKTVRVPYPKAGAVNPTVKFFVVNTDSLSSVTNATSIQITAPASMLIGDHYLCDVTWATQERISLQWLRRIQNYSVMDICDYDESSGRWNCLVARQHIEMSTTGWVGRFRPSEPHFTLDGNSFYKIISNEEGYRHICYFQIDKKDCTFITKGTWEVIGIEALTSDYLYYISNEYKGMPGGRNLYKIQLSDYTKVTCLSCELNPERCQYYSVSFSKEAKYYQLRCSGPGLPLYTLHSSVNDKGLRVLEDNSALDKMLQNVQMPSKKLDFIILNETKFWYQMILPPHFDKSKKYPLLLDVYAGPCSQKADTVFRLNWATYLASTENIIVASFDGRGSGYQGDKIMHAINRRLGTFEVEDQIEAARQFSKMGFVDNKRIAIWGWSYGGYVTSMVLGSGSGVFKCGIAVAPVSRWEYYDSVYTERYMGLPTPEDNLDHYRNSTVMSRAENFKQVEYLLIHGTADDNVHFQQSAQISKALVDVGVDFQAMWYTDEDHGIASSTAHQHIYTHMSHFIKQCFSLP
smiles,measurement,setting,value
N#C[C@@H]1C[C@@H]2CCC[C@@H]2N1C(=O)C[C@H](N)Cc1ccccc1Cl,IC50,Dipeptidyl peptidase 2,Not Active
N#C[C@@H]1C[C@H](F)CN1C(=O)C[C@H](N)Cc1ccc(Cl)c(Cl)c1,IC50,Dipeptidyl peptidase 9,0.23 µM
N#C[C@@H]1C[C@@H]2CCC[C@@H]2N1C(=O)C[C@H](N)Cc1ccc(F)cc1,IC50,Prolyl endopeptidase FAP; read-out: IC50,154 µM
N#C[C@@H]1C[C@H](F)CN1C(=O)C[C@H](N)Cc1ccccc1Cl,IC50,Dipeptidyl peptidase 2; read-out: IC50,130 µM
COc1ccc(C[C@@H](N)CC(=O)N2[C@H](C#N)C[C@@H]3CCC[C@@H]32)cc1,IC50,Dipeptidyl peptidase 4,Not Active
N#C[C@@H]1C[C@@H]2CCC[C@@H]2N1C(=O)C[C@H](N)Cc1ccccc1,IC50,Dipeptidyl peptidase 8,Not Active
same,IC50,Prolyl endopeptidase FAP,Not Active
same,IC50,Dipeptidyl peptidase 2,Not Active
same,IC50,Dipeptidyl peptidase 9,108 µM
N#C[C@@H]1C[C@H](F)CN1C(=O)C[C@H](N)Cc1ccc(F)cc1,IC50,Dipeptidyl peptidase 2; read-out: IC50,193 µM
